Results reported in ChEMBL document CHEMBL6121062, “Discovery, Optimization, and Preclinical Pharmacology of EP652, a METTL3 Inhibitor with Efficacy in Liquid and Solid Tumor Models” (J Med Chem, 2025).

Assays:
[1] = Unbound clearance in Sprague-Dawley rat at 1 mg/kg/day, iv measured for 24 hrs by LC-MS/MS analysis; assay type: ADME, organism-based; settings: in vivo
[2] = Lipophilicity, logD of compound in 1-octanol/PBS at pH 7.4 incubated for 24 hrs by HPLC analysis; assay type: physicochemical
[3] = Unbound AUC in Sprague-Dawley rat at 1 mg/kg/day, iv measured for 24 hrs by LC-MS/MS analysis; assay type: ADME, organism-based; settings: in vivo
METTL3/METTL14 = METTL3/METTL14 (Homo sapiens, UniProt Q86U44); test: Displacement of [3H]-SAM from METTL3/METTL14 (unknown origin) using 5'biotinylated-UACACUCGAUCUGGACUAAAGGUGCUC-3' RNA as substrate preincubated for 10 mins followed by substrate/[3H]-SAM addition measured after 90 mins by SPA; assay type: protein-complex assay
Chain of METTL3/METTL14 (Q86U44 whole entry): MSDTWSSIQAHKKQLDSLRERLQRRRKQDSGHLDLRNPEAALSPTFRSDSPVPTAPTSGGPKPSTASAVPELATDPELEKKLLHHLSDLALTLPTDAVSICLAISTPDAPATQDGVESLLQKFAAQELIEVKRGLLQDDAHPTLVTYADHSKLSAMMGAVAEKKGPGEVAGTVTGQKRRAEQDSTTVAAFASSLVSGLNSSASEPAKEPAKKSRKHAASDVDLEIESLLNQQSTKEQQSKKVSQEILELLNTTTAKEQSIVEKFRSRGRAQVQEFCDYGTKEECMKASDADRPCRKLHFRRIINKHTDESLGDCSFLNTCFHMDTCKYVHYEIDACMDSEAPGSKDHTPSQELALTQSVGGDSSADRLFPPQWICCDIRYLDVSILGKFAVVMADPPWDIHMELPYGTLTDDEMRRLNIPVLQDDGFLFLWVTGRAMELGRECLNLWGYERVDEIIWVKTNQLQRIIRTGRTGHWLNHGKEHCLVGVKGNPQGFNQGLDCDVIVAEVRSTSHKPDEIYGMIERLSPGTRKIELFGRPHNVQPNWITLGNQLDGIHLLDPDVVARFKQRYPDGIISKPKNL
Chain of METTL3/METTL14 (Q9HCE5 whole entry, further chain): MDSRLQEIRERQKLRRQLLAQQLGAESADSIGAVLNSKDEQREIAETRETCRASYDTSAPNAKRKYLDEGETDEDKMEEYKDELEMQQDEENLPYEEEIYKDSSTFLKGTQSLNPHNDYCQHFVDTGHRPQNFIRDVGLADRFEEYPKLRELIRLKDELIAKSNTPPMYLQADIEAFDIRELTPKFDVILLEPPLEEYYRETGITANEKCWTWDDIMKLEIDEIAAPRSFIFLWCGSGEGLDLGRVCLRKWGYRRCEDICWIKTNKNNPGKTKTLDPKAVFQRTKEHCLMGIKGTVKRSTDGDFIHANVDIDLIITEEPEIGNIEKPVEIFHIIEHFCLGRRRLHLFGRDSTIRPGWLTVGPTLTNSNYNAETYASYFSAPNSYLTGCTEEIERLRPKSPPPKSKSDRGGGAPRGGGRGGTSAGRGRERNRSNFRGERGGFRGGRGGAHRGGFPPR

[4] = Unbound fraction in Sprague-Dawley rat plasma at 1 mg/kg/day, iv measured for 24 hrs by LC-MS/MS analysis; assay type: ADME, organism-based; settings: in vivo
Kasumi 1 = test: Antiproliferative activity against human Kasumi 1 cells assessed as inhibition of cell viability incubated for 72 hrs by ATPlite assay; assay type: functional, cell-based; settings: Kasumi 1, 72 h

| SMILES | CL free [1] [mL/min/kg] | logD at 24 h [2] | fAUC [3] [µM·min] | IC50 (METTL3/METTL14) [nM] | Fu [4] [%] | IC50 (Kasumi 1) [nM] |
| --- | --- | --- | --- | --- | --- | --- |
| COc1cncc(-c2cn(Cc3ccc(N4CCC[C@@H](NCC5CCC5)C4)cn3)nn2)c1 | 934 | 1.21 | 2.4 | 4 | 8.9 | 894 |
| COc1cncc(-c2cn(C(C)c3ccc(N4CCC[C@@H](NCC5CCC5)C4)nn3)nn2)c1 (stereo partly specified) | 423 | 1.62 | 5.3 | 4 | 14 | 904 |
| CCC(c1ccc(N2CCC[C@@H](NCC3CCC3)C2)nn1)n1cc(-c2cncc(OC)c2)nn1 (stereo partly specified) |  | 1.9 |  | 31 | 11.2 | 6000 |
| COc1cncc(-c2cn(Cc3ccc(N4CCC[C@@H](NCC5CCC5)C4)nn3)nn2)c1 | 596 | 1.47 | 5.7 | 6 | 11.1 | 1930 |
| COc1cncc(-c2cn(C(C)c3ccc(N4CCC[C@@H](NCC5CCC5)C4)cn3)nn2)c1 (stereo partly specified) | 263 | 1.65 | 10.9 | 4 | 14.1 | 2100 |
| CC(n1cc(-c2cncc(N3CCCC3)c2)nn1)n1ccc(N2CCC[C@@H](NCC3CC3)C2)cc1=O (stereo partly specified) | 1487 | 1.93 | 1.3 | 3 |  | 11 |
| COc1cncc(-c2cn(C(C)(C)c3ccc(N4CCC[C@@H](NCC5CCC5)C4)nn3)nn2)c1 | 421 | 1.69 | 4.9 | 6 | 15.3 | 2070 |
| COc1cncc(-c2cn(Cn3ccc(N4CCC[C@@H](NCC5CCC5)C4)cc3=O)nn2)c1 | 854 | 1.51 | 2.7 | 3 | 9.3 | 1100 |

Continued by falling IC50 (METTL3/METTL14), values first:

| CL free [1] [mL/min/kg] | logD at 24 h [2] | fAUC [3] [µM·min] | IC50 (METTL3/METTL14) [nM] | Fu [4] [%] | SMILES | IC50 (Kasumi 1) [nM] |
| --- | --- | --- | --- | --- | --- | --- |
| 413 | 1.65 | 6.1 | 3 |  | COc1cncc(-c2cn(C(C)n3ccc(N4CCC[C@@H](NCC5CCC5)C4)cc3=O)nn2)n1 (stereo partly specified) | 656 |
| 2269 | 2.13 | 0.9 | 2 |  | COc1cc(-c2cn(C(C)n3ccc(N4CCC[C@@H](NCC5CCC5)C4)cc3=O)nn2)c2cn[nH]c2c1 (stereo partly specified) | 437 |
| 645 | 1.5 | 3.8 | 2 | 17.4 | COc1cncc(-c2cn([C@H](C)n3ccc(N4CCC[C@@H](NCC5CCC5)C4)cc3=O)nn2)c1 | 489 |
| 1913 | 2.49 | 1 | 2 |  | CC(n1cc(-c2cncc(N3CCCC3)c2)nn1)n1ccc(N2CCC[C@@H](NCC3CCC3)C2)cc1=O (stereo partly specified) | 7 |
| 529 | 1.8 | 3.3 | 2 |  | CC(n1cc(-c2cncc(-n3cccn3)c2)nn1)n1ccc(N2CCC[C@@H](NCC3CCC3)C2)cc1=O (stereo partly specified) | 301 |
| 449 | 1.69 | 4.7 | 1 |  | CC(n1cc(-c2cncc(N(C)C)n2)nn1)n1ccc(N2CCC[C@@H](NCC3CCC3)C2)cc1=O (stereo partly specified) | 35 |
| 443 | 1.6 | 4.7 | 1 |  | C[C@@H](n1cc(-c2cncc(N3CCCC3)n2)nn1)n1ccc(N2CCC[C@@H](NCC3CC3)C2)cc1=O | 13 |
